Here are results for 14 molecules from PubChem BioAssay (NCI).

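The compound was tested at five concentrations on cells cultured in 96-well plates, with a 48-hour exposure period. TGI marks complete inhibition of growth.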

Holding throughout (assay): inhibition of tumour cell growth, NCI panel, 48 h
Experiment [1] has as its system HCT-15 colon.
The subject of experiment [2] is HCC-2998 colon.
Experiment [3] concerns NCI-H460 lung.
In experiment [4] the test system is A549 NSCLC.
The test system of experiment [5] is NCI-H226 lung.
Experiment [6] relates to RXF 393 renal.
The test system of experiment [7] is SK-OV-3 ovarian.
Experiment [8] has as its system MOLT-4 leukemia.
The test system of experiment [9] is SF-268 CNS.
Experiment [10] deals with RPMI-8226 leukemia.

Turning to `Cc1ccc(Nc2nc(NS(=O)(=O)c3cc(C)c(Cl)cc3S)n[nH]2)cc1`, the TGI in [1], in experiment [2], in [3], in experiment [4], in experiment [5] and in experiment [6] was over 100 µM each time. Also, the TGI in experiment [7], in [8], in [9] and in experiment [10] was over 100 µM in each case.

Turning to `CC(CC(C)(C)[N+](C)(C)C)[N+](C)(C)C` (stereo not drawn), the TGI in [1], in experiment [2], in [3], in [4], in experiment [5] and in [6] was over 100 µM each time. Besides, the TGI in experiment [7], in experiment [8], in [9] and in [10] was over 100 µM each time.

Take `O=C1/C(=C2\SCC(=O)N2c2ccccc2)SC(=S)N1c1ccccc1`: the TGI in [1] is over 100 µM; in experiment [2] it was 62.1 µM; in experiment [3] it was over 100 µM; in experiment [4], over 100 µM; in experiment [5] it was 48.4 µM; in [6] it was over 100 µM. For the same molecule, the TGI is 55.2 µM in [7], 51.7 µM in experiment [8], over 100 µM in [9] and over 100 µM in [10].

For `CC(C)(C)OC(=O)NCCNC(=O)CN(CC(=O)O)C1CCCCC1N(CC(=O)O)CC(=O)O` (stereo not drawn), the TGI in [1], in [2], in [3], in experiment [4], in experiment [5] and in [6] was over 100 µM in each case. Also, the TGI in experiment [7], in experiment [8], in [9] and in experiment [10] was over 100 µM in each case.

For `CCOC(=O)C1=CN(C(=O)c2ccccc2)CCC1Cc1ccccc1` (stereo not drawn), the TGI in [1] is over 100 µM; in experiment [2] it was 38.5 µM; in experiment [3], 44.9 µM; in [4], over 100 µM; in experiment [5], over 100 µM; in experiment [6] it was 61.8 µM. Moreover, the TGI in experiment [7] was over 100 µM; in [8], 38.5 µM; in [9] it was over 100 µM; in [10] it was 36.6 µM.

For `CCOC(=O)/C=C(/C(=O)OCC)n1ccc(=O)[nH]c1=O`, the TGI was found to be 9.39 µM in [1]; 32.3 µM in experiment [2]; 30.5 µM in experiment [3]; 33.8 µM in experiment [4]; 14.5 µM in [5]; 13.8 µM in [6]. The TGI amounted to 32.9 µM in experiment [7], 6.12 µM in [8], 39.6 µM in experiment [9] and 11.3 µM in experiment [10].

For `Cc1csc2n(C)c(=O)c3ccccc3[n+]12`, the TGI in experiment [1], in experiment [2], in [3], in [4], in experiment [5] and in experiment [6] was over 100 µM throughout. Also, the TGI in experiment [7], in [8], in experiment [9] and in [10] was over 100 µM in each case.

For the molecule `Cc1nn(C(=O)c2ccc(Cl)cc2)c2c1C(c1ccco1)SC(N)=N2` (stereo not drawn), the TGI in [1], in experiment [2], in experiment [3], in experiment [4], in experiment [5] and in experiment [6] was over 10 µM throughout. For the same molecule, the TGI in [7], in experiment [8], in experiment [9] and in experiment [10] was over 10 µM in each case.

For `O=C(NNCc1ccccc1O)c1ccccc1O`, the TGI in experiment [1] was over 100 µM; in experiment [2], 45.1 µM; in experiment [4] it was over 100 µM; in [5] it was over 100 µM; in [6], over 100 µM; in [7], 68.6 µM. Further, the TGI in [8] and in experiment [10] was over 100 µM throughout.

For the molecule `COC(=O)C(N)CCCC(N)C(=O)NC(C)C(=O)NC(CCC(=O)NCCCNc1ccc([N+](=O)[O-])c2[nH]c3ccccc3c(=O)c12)C(N)=O` (stereo not drawn), the TGI in experiment [1] came to 15 µM; in experiment [2], 21.8 µM; in [3], 17.2 µM; in experiment [4], 12.3 µM; in [5], 27.9 µM; in [6] it was 25.1 µM. Besides, the TGI in experiment [7] was found to be 26.7 µM; in experiment [9] it was 13.8 µM; in [10], 14 µM.

Regarding `CCOC(=O)CCC(NC(=O)c1ccc(NCc2ccc3nc(-c4ccccc4)c(Cl)nc3c2)c2ccccc12)C(=O)OCC` (stereo not drawn), the TGI in experiment [1], in experiment [2], in experiment [3], in [4], in experiment [5] and in [6] was over 100 µM throughout. In addition, the TGI in experiment [7] is over 100 µM; in experiment [8], 27.9 µM; in [9], over 100 µM.

Consider `O=c1c(S(=O)(=O)Oc2ccccc2)coc2cc(F)ccc12`, for which the TGI is over 100 µM in experiment [1]; over 100 µM in experiment [2]; over 100 µM in experiment [3]; over 100 µM in [4]; 73.6 µM in experiment [5]; over 100 µM in [6]. Besides, the TGI in experiment [7], in experiment [8] and in experiment [9] was over 100 µM each time.

Regarding `c1ccc2nn(C3CCCCO3)nc2c1` (stereo not drawn), the TGI in experiment [1], in [2], in experiment [3], in experiment [4], in experiment [5] and in experiment [6] was over 100 µM throughout. The TGI in experiment [7], in experiment [8] and in experiment [9] was over 100 µM throughout.

With `Cc1ccnc2sc3ccccc3c(=O)c12`, the TGI in experiment [1], in experiment [2], in experiment [3], in experiment [5], in [6] and in [7] was over 100 µM each time. For the same molecule, the TGI in experiment [8] is 79.2 µM; in experiment [9], over 100 µM; in experiment [10] it was over 100 µM.
